Data on 24 molecules can be found in patent US10501449B2 (priority 2018, dated 2019).

For one data set, the target named is hROMK (human Kir1.1) (Homo sapiens (Human), UniProt P48048). As to the kind of experiment: cell-based. To be noted: CHO T-Rex hROMK stable cell line; thallium flux; 10-point concentration response curve; read-out: Human ROMK Th Flux IC50.
A further data set deals with hERG channels (Homo sapiens (Human), UniProt Q12809). As to the kind of experiment: hERG Manual Patch Clamp Assay. In kind it is cell-based. The note with it: human, HEK 293 cells stably expressing hERG channels, pH 7.4, 1 uM, read-out: hERG EP % Inh @ 1 uM. A general note: Block of hERG is tested as a sign of cardiac risk.
Sequence of hERG channels (Q12809 whole entry): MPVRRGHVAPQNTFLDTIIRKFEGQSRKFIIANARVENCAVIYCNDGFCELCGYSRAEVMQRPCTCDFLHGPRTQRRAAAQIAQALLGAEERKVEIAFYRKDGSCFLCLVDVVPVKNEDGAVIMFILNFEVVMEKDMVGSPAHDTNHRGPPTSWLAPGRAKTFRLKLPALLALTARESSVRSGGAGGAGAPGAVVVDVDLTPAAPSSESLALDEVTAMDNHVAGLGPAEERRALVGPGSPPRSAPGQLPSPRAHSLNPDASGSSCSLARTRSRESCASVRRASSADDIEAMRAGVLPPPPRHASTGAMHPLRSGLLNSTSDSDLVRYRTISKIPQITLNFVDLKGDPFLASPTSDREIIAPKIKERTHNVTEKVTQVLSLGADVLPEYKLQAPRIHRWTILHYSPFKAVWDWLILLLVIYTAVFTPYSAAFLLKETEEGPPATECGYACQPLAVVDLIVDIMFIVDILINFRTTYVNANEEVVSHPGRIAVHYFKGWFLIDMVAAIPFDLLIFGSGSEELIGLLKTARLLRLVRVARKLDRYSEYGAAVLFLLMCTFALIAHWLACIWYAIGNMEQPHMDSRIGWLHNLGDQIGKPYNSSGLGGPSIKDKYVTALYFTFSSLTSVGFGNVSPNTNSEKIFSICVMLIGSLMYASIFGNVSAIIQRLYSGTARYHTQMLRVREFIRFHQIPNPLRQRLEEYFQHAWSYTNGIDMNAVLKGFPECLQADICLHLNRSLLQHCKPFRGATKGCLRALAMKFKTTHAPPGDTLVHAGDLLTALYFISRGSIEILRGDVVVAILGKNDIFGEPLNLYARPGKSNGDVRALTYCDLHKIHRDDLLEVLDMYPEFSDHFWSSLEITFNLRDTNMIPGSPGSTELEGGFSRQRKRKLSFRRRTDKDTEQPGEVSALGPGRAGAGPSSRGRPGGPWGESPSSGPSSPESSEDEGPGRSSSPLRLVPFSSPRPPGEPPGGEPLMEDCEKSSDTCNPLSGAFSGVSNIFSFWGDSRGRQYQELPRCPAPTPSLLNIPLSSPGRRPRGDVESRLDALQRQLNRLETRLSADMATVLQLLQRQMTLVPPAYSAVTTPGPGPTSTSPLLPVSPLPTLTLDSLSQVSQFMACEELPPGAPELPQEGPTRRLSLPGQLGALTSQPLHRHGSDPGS

Sequence of hROMK (human Kir1.1) (P48048 whole entry): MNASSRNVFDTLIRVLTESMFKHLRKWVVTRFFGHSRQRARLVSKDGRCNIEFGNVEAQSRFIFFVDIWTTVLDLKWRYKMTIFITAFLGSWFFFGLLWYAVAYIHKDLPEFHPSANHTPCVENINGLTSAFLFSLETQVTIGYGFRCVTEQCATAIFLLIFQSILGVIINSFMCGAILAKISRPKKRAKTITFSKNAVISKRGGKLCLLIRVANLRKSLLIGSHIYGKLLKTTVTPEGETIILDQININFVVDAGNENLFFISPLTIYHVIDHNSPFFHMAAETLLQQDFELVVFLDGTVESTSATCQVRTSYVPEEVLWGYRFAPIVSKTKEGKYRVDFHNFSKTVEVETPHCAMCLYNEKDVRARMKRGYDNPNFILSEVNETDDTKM
Method for hERG channels: hERG electrophysiology assay: The experimental compounds were assessed for hERG activity on HEK 293 cells stably expressing hERG channels using patch clamp technique. Coverslips plated with hERG expressing cells were placed in the experimental chamber and were perfused with a solution composed of (in mM): 140 NaCl, 4 KCl, 1.8 CaCl2, 1 MgCl2, 10 Glucose, 10 HEPES (pH 7.4, NaOH) at room temperature. Borosilicate patch pipettes had tip resistances of 2-4 Mohms when filled with an internal solution containing: 130 KCl, 1 MgCl2, 1 CaCl2, 10 EGTA, 10 HEPES, 5 ATP-K2 (pH 7.2, KOH). The cells were clamped at −80 mV in whole cell configuration using an Axopatch 200B (Axon instruments, Union City, Calif.) patch clamp amplifier controlled by pClamp (Axon instruments) software. Upon formation of a gigaseal, the following voltage protocol was repeatedly (0.05 Hz) applied to record tail currents: depolarization step from −80 mV to +20 mV for 2 seconds followed by a hyperpolarization step to −65 mV (3 seconds) to elicit tail currents. Compounds were applied after stabilization of tail current. First, tail currents were recorded in presence of extracellular solution alone (control) and subsequently, in extracellular solution containing increasing compound concentrations. Each compound concentration was applied for 2-5 minutes. The percentage inhibition at each concentration was calculated as reduction in peak tail current with respect to the peak tail current recorded in the presence of control solution. Data analysis was performed in a custom made template. The percent inhibitions at different concentrations were plotted to obtain a concentration response curve, which was subsequently fitted with a four parameter equation to calculate hERG IC50 value.

Turning to `COc1cc(C#N)ccc1-n1cc(CN2CCO[C@H](c3ccc4c(c3C)COC4=O)C2)cn1` [Example 51-I, (R)-3-methoxy-4-(4-((2-(4-methyl-1-oxo-1,3-dihydroisobenzofuran-5-yl)morpholino)methyl)-1H-pyrazol-1-yl) benzonitrile], on hROMK (human Kir1.1), the IC50 – broadly, the point on the concentration scale where inhibition reaches its midpoint – was determined as 29 nM. The inhibition at 1 µM on hERG channels was determined as 43%.
The corresponding values for `Cc1cc(-n2cc(CN3CCO[C@H](c4ccc5c(c4C)COC5=O)C3)c(C)n2)ncc1C#N` [Example 52-I, (R)-4-methyl-6-(3-methyl-4-((2-(4-methyl-1-oxo-1,3-dihydroisobenzo-furan-5-yl)morpholino)methyl)-1H-pyrazol-1-yl)nicotinonitrile] are 2.8 nM and 72%.
With `Cc1c([C@@H]2CN(Cc3cnn(-c4cc(C)c5oc(=O)n(C)c5c4)c3)CCN2)ccc2c1COC2=O` [Example 57-I, (R)-3,7-dimethyl-5-(4-((3-(4-methyl-1-oxo-1,3-dihydroisobenzofuran-5-yl)piperazin-1-yl)methyl)-1H-pyrazol-1-yl)benzo[d]oxazol-2(3H)-one], on hROMK (human Kir1.1), the IC50 came out at 59 nM. Besides, the inhibition at 1 µM at hERG channels was 26%.
The corresponding values for `COc1cc(-c2ccc(CN3CCN[C@H](c4ccc5c(c4C)COC5=O)C3)cn2)ncc1C#N` [Example 63-I, (R)-4-methoxy-5′-((3-(4-methyl-1-oxo-1,3-di-hydroisobenzofuran-5-yl)piperazin-1-yl)methyl)-[2,2′-bipyridine]-5-carbonitrile] are 60 nM and 23%.
Regarding `Cc1c([C@@H]2CN(Cc3ccc(-n4cc(C#N)cn4)nc3)CCN2)ccc2c1COC2=O` [Example 64-I, (R)-1-(5-((3-(4-methyl-1-oxo-1,3-dihydroiso-benzofuran-5-yl)piper-azin-1-yl)methyl)pyri-din-2-yl)-1H-pyrazole-4-carbonitrile], on hROMK (human Kir1.1), the IC50 was 8.8 nM. For the same molecule, at hERG channels, the inhibition at 1 µM is 45%.
In the same order, the values of `Cc1cc(-n2cc(CN3CCN(C)[C@H](c4ccc5c(c4C)COC5=O)C3)cn2)ncc1C#N` [Example 70-I, (R)-4-methyl-6-(4-((4-methyl-3-(4-methyl-1-oxo-1,3-dihydroisobenzo-furan-5-yl)piperazin-1-yl)methyl)-1H-pyra-zol-1-yl)nicotinonitrile] are 59 nM and 8.4%.
On to `Cc1cc(-n2cc(CN3CC[C@@H](O)[C@H](c4ccc5c(c4C)COC5=O)C3)nn2)ncc1C#N` [Example 84-I, 6-(4-(((3R,4R)-4-hydroxy-3-(4-methyl-1-oxo-1,3-dihydroisobenzofuran-5-yl)piperidin-1-yl)methyl)-1H-1,2,3-triazol-1-yl)-4-methylnicotinonitrile], for which the IC50 at hROMK (human Kir1.1) came out at 52 nM. Also, the inhibition at 1 µM at hERG channels came out at 6.7%.
The corresponding values for `COc1cc(-n2cc(CN3C[C@@H](c4ccc5c(c4C)COC5=O)N[C@@H](C)C3)nn2)nc(C)c1C#N` [Example 86-I, 4-methoxy-2-methyl-6-(4-(((3S,5R)-3-methyl-5-(4-methyl-1-oxo-1,3-dihydroisobenzofur-an-5-yl)piperazin-1-yl)methyl)-1H-1,2,3-triazol-1-yl)nicotinonitrile] are 64 nM and 8.8%.
The corresponding values for `COc1nc(-n2cc(CN3C[C@@H](c4ccc5c(c4C)COC5=O)N[C@@H](C)C3)cn2)ccc1C#N` [Example 93-I, 2-methoxy-6-(4-(((3S,5R)-3-methyl-5-(4-methyl-1-oxo-1,3-dihydroisobenzofur-an-5-yl)piperazin-1-yl)methyl)-1H-pyrazol-1-yl)nicotinonitrile] are 44 nM and 23%.
As for `Cc1nc(-n2cnc(CN3C[C@@H](c4ccc5c(c4C)COC5=O)N[C@@H](C)C3)c2)nc(C)c1C#N` [Example 95-I, 4,6-dimethyl-2-(4-(((3S,5R)-3-methyl-5-(4-methyl-1-oxo-1,3-dihydroisobenzofur-an-5-yl)piperazin-1-yl)methyl)-1H-imidazol-1-yl)pyrimidine-5-carbonitrile], at hROMK (human Kir1.1), the IC50 turned out to be 26 nM. Further, the inhibition at 1 µM at hERG channels came to 13%.
In the same order, the values of `Cc1nc(-n2cc(CN3C[C@@H](c4ccc5c(c4C)COC5=O)N[C@@H](C)C3)cn2)ncc1C#N` [Example 96-I, 4-methyl-2-(4-(((3S,5R)-3-methyl-5-(4-methyl-1-oxo-1,3-dihydroisobenzofur-an-5-yl)piperazin-1-yl)methyl)-1H-pyrazol-1-yl)pyrimidine-5-carbonitrile] are 27 nM and 9.6%.
For the molecule `Cc1nc(-n2ncc(CN3C[C@H](CO)N[C@H](c4ccc5c(c4C)COC5=O)C3)n2)ncc1C#N` [Example 104-I, 2-(4-(((3R,5R)-3-(hydroxymethyl)-5-(4-methyl-1-oxo-1,3-dihydroisobenzofur-an-5-yl)piperazin-1-yl)methyl)-2H-1,2,3-triazol-2-yl)-4-methylpyrimidine-5-carbonitrile], the IC50 at hROMK (human Kir1.1) amounted to 36 nM. Also, the inhibition at 1 µM on hERG channels was 3.4%.
In the same order, the values of `COc1cc(-n2cc(CN3CC[C@@H](O)[C@H](c4ccc5c(c4C)COC5=O)C3)cn2)ncc1C#N` [Example 112-I, 6-(4-(((3R,4R)-4-hydroxy-3-(4-methyl-1-oxo-1,3-dihydroisobenzofur-an-5-yl)piperidin-1-yl)methyl)-1H-pyrazol-1-yl)-4-methoxynicotinonit-rile] are 18 nM and 22%.
In the same order, the values of `Cc1cc(-n2cc(CN3CC(c4ccc5c(c4C)COC5=O)C(O)C(C)(C)C3)cn2)ncc1C#N` (stereo not drawn) [Example 116-I, 6-(4-((4-hydroxy-3,3-dimethyl-5-(4-methyl-1-oxo-1,3-dihydroisobenzofuran-5-yl)piperidin-1-yl)methyl)-1H-pyrazol-1-yl)-4-methylnicotinonitrile] are 39 nM and 6.4%.
Turning to `Cc1cc(-n2cnc(CN3C[C@@H](c4ccc5c(c4C)COC5=O)N[C@@H](C)C3)n2)ncc1C#N` [Example 122-I, 4-methyl-6-(3-(((3S,5R)-3-methyl-5-(4-methyl-1-oxo-1,3-dihydroisobenzofuran-5-yl)piperazin-1-yl)methyl)-1H-1,2,4-triazol-1-yl)nicotinonitrile], the IC50 on hROMK (human Kir1.1) amounted to 50 nM. In addition, the inhibition at 1 µM on hERG channels was found to be 6.6%.
The corresponding values for `Cc1cc(-c2ncc(CN3CC[C@@H](O)[C@H](c4ccc5c(c4C)COC5=O)C3)s2)ncc1C#N` [Example 125-I, 6-(5-(((3R,4R)-4-hydroxy-3-(4-methyl-1-oxo-1,3-dihydroisobenzofuran-5-yl)piperidin-1-yl)methyl)thiazol-2-yl)-4-methylnicotinonitrile] are 30 nM and 8.3%.
Take `Cc1c([C@@H]2CN(Cc3cnn(-c4ccnc(C(F)(F)F)c4)c3)C[C@H](C)N2)ccc2c1COC2=O` [Example 128-I, 4-methyl-5-((2R,6S)-6-methyl-4-((1-(2-(trifluoromethyl)pyridin-4-yl)-1H-pyrazol-4-yl)methyl)piperazin-2-yl)isobenzofuran-1(3H)-one]: the IC50 at hROMK (human Kir1.1) came out at 66 nM. Also, at hERG channels, the inhibition at 1 µM stood at 19%.
`Cc1c([C@@H]2CN(Cc3cnn(-c4ccn(C(F)F)c(=O)c4)c3)C[C@H](C)N2)ccc2c1COC2=O` [Example 129-I, 1-(difluoromethyl)-4-(4-(((3S,5R)-3-methyl-5-(4-methyl-1-oxo-1,3-dihydroisobenzofuran-5-yl)piperazin-1-yl)methyl)-1H-pyrazol-1-yl)pyridin-2(1H)-one]: the IC50 on hROMK (human Kir1.1) was determined as 26 nM. At hERG channels, the inhibition at 1 µM was 32%.
On to `Cc1c([C@@H]2CN(Cc3cn(-c4ccc(C(F)F)nc4)cn3)C[C@H](C)N2)ccc2c1COC2=O` [Example 134-I, 5-((2R,6S)-4-((1-(6-(difluoromethyl)pyridin-3-yl)-1H-imidazol-4-yl)methyl)-6-methylpiperazin-2-yl)-4-methylisobenzofuran-1(3H)-one], for which the half-maximal inhibitory concentration (IC50) on hROMK (human Kir1.1) was 43 nM. Besides, the inhibition at 1 µM at hERG channels came out at 22%.
Take `Cc1c([C@@H]2CN(Cc3ccc(-n4ccc(C#N)n4)nc3)CCN2)ccc2c1COC2=O` [Example 136-I, (R)-1-(5-((3-(4-methyl-1-oxo-1,3-dihydroisobenzofuran-5-yl)piperazin-1-yl)methyl)pyridin-2-yl)-1H-pyrazole-3-carbonitrile]: the IC50 at hROMK (human Kir1.1) is 28 nM. Also, on hERG channels, the inhibition at 1 µM stood at 29%.
In the case of `CCOc1cc(-n2cc(CN3CCN[C@H](c4ccc5c(c4C)COC5=O)C3)cn2)ncc1C#N` [Example 137-I, (R)-4-ethoxy-6-(4-((3-(4-methyl-1-oxo-1,3-dihydroisobenzofuran-5-yl)piperazin-1-yl)methyl)-1H-pyrazol-1-yl)nicotinonitrile], the IC50 on hROMK (human Kir1.1) came to 26 nM. Also, at hERG channels, the inhibition at 1 µM was 23%.
In the same order, the values of `Cc1c([C@@H]2CN(Cc3cnn(-c4cc(OC(C)C)c(C#N)cn4)c3)CCN2)ccc2c1COC2=O` [Example 140-I, (R)-4-isopropoxy-6-(4-((3-(4-methyl-1-oxo-1,3-dihydroisobenzofuran-5-yl)piperazin-1-yl)methyl)-1H-pyrazol-1-yl)nicotinonitrile] are 26 nM and 49%.
In the case of `Cc1cn(-c2cc(C)c(CN3CCN[C@H](c4ccc5c(c4C)COC5=O)C3)cn2)cn1` [Example 141-I, (R)-4-methyl-5-(4-((4-methyl-6-(4-methyl-1H-imidazol-1-yl)pyridin-3-yl)methyl)piperazin-2-yl)isobenzofuran-1(3H)-one], the IC50 on hROMK (human Kir1.1) was 69 nM. Further, the inhibition at 1 µM on hERG channels was 7.1%.
As for `Cc1cn(-c2ccc(CN3CCN[C@H](c4ccc5c(c4C)COC5=O)C3)c(C)n2)cn1` [Example 142-I, (R)-4-methyl-5-(4-((2-methyl-6-(4-methyl-1H-imidazol-1-yl)pyridin-3-yl)methyl)piperazin-2-yl)isobenzofuran-1(3H)-one], on hROMK (human Kir1.1), the IC50 came to 76 nM. For the same molecule, the inhibition at 1 µM at hERG channels worked out at 8.5%.
